Experimental data from patent US11345711B2, “8,9-dihydroimidazo[1,2-a]pyrimido[5,4-e]pyrimidin-5(6H)-ones” (IMPACT THERAPEUTICS (SHANGHAI), INC, priority 2016, dated 2022).
Like-named read-outs stand apart in the source and are kept apart here.

Legend:
[1] = tested on: NCI-H1299 cells; assay: MTT based cell viability assay on NCI-H1299 cells; conditions: Homo sapiens, read-out: IC50, growth inhibition of NCI-H1299 cells
Procedure, shortened: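 Viability read-out was MTT reduction (0.5 mg/mL, 4 h, absorbance 552/630/690 nm) after 3-day compound exposure at 37 °C of NCI-H1299 cells seeded at 1000 per well. Dilutions spanned 10 μM–0.01 μM in DMSO, final DMSO 1‰. Survival-versus-concentration curves were fitted sigmoidally to give IC50.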

[2] = tested on: LoVo cells; assay: MTT based cell viability assay on LoVo cells; conditions: Homo sapiens, LoVo, 72 h, 3 d, read-out: IC50, growth inhibition of LoVo cells
Procedure, shortened: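 Inhibition of LoVo proliferation was derived as IC50 from a sigmoidal dose-response fit of cell survival. Readout was MTT (0.5 mg/mL, 4 h) with absorbance at 552/630/690 nm, after 3-day treatment at 37 °C. Eight-point series from 10 μM to 0.01 μM, DMSO control, 1% DMSO final.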

[3] = target: Wee1 (h) (Homo sapiens, UniProt P30291); assay: Wee1 kinase (h) detection method, [γ-33P]-ATP filter assay; format: biochemical
Wee1 (h), sequence (P30291 whole entry): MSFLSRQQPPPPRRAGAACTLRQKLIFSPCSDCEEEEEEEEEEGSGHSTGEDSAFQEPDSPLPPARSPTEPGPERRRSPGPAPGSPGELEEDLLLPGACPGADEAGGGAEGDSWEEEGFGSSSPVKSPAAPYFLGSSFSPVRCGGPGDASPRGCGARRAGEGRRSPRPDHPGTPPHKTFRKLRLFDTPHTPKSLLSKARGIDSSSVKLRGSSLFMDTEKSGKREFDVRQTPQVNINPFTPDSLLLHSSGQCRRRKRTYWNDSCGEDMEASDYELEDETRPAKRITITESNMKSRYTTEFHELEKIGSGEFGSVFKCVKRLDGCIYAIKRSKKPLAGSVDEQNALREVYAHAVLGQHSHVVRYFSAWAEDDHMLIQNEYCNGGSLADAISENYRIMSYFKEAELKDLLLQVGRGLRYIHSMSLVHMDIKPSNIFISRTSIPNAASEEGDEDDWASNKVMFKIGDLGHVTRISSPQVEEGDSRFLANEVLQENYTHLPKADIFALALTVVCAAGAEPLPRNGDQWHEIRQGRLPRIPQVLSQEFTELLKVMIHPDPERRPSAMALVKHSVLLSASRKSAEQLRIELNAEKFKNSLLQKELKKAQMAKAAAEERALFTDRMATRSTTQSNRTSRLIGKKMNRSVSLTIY

SMILES | IC50 ([1]; NCI-H1299 cells) [nM] | IC50 [2] [nM] | Inh. (%) of Wee1 kinase enzyme activity ([3]; C 1 μm compound) [%] | IC50 ([1]; NCI-H1299, NCI-H1299 cells) [nM] | Inh. (%) of Wee1 kinase enzyme activity ([3]; C 0.01 μm compound) [%] | Inh. (%) of Wee1 kinase enzyme activity ([3]; C 0.1 μm compound) [%]
CN1CCN(c2ccc(Nc3ncc4c(n3)N3CCN=C3N(c3c(F)cccc3Cl)C4=O)c(Cl)c2)CC1 [Example 38, 6-(2-Chloro-6-fluorophenyl)-2-((2-chloro-4-(4-methylpiperazin-1-yl)phenyl)amino)-8,9-dihydroimidazo[1,2-a]pyrimido[5,4-e]pyrimidin-5(6H)-one] | > 10000 | > 100000 | 34 |  |  | 
CN1CCC(N(C)c2ccc(Nc3ncc4c(n3)N3CCN=C3N(c3c(F)cccc3Cl)C4=O)cc2)CC1 [Example 113, 6-(2-Chloro-6-fluorophenyl)-2-((4-(methyl(1-methylpiperidin-4-yl)amino)phenyl)amino)-8,9-dihydroimidazo[1,2-a]pyrimido[5,4-e]pyrimidin-5(6H)-one] |  | 483 | 96 | 672 |  | 
CN1CCn2nc(Nc3ncc4c(n3)N3CCN=C3N(c3c(Cl)cccc3Cl)C4=O)cc2C1 [Example 79, 6-(2,6-Dichlorophenyl)-2-((5-methyl-4,5,6,7-tetrahydropyrazolo[1,5-a]pyrazin-2-yl)amino)-8,9-dihydroimidazo[1,2-a]pyrimido[5,4-e]pyrimidin-5(6H)-one] | > 10000 | > 100000 | 69 |  |  | 
CN1CCN(c2ccc(Nc3ncc4c(n3)N3CCN=C3N(c3c(F)cccc3Cl)C4=O)c(C(F)(F)F)c2)CC1 [Example 40, 6-(2-Chloro-6-fluorophenyl)-2-((4-(4-methylpiperazin-1-yl)-2-(trifluoromethyl)phenyl)amino)-8,9-dihydroimidazo[1,2-a]pyrimido[5,4-e]pyrimidin-5(6H)-one] | > 10000 | > 100000 | 4 |  |  | 
CN1CCc2ccc(Nc3ncc4c(n3)N3CCN=C3N(c3c(Cl)cccc3Cl)C4=O)cc2C1 [Example 12, 6-(2,6-Dichlorophenyl)-2-((2-methyl-1,2,3,4-tetrahydroisoquinolin-7-yl)amino)-8,9-dihydroimidazo[1,2-a]pyrimido[5,4-e]pyrimidin-5(6H)-one] | 232 | 219 | 98 |  | 32 | 83
CN1CCN(c2ccc(Nc3ncc4c(n3)N3CCN=C3N(C3CCCCC3)C4=O)cc2)CC1 [Example 21, 6-Cyclohexyl-2-((4-(4-methylpiperazin-1-yl)phenyl)amino)-8,9-dihydroimidazo[1,2-a]pyrimido[5,4-e]pyrimidin-5(6H)-one] | 3300 | 2130 | 9 |  |  | 
Cc1cccc(C)c1N1C(=O)c2cnc(Nc3ccc4c(c3)CN(C)CC4)nc2N2CCN=C21 [Example 15, 6-(2,6-Dimethylphenyl)-2-((2-methyl-1,2,3,4-tetrahydroisoquinolin-7-yl)amino)-8,9-dihydroimidazo[1,2-a]pyrimido[5,4-e]pyrimidin-5(6H)-one] | 966 | 1730 | 89 |  |  | 
Cc1cc(Nc2ncc3c(n2)N2CCN=C2N(c2c(Cl)cccc2Cl)C3=O)cc2c1CCN(C)C2 [Example 131, 6-(2,6-Dichlorophenyl)-2-((2,5-dimethyl-1,2,3,4-tetrahydroisoquinolin-7-yl)amino)-8,9-dihydroimidazo[1,2-a]pyrimido[5,4-e]pyrimidin-5(6H)-one] |  | 187 | 100 | 58.8 | 27 | 89
CN1CCC(Nc2ccc(Nc3ncc4c(n3)N3CCN=C3N(c3c(F)cccc3Cl)C4=O)cc2)CC1 [Example 112, 6-(2-Chloro-6-fluorophenyl)-2-((4-((1-methylpiperidin-4-yl)amino)phenyl)amino)-8,9-dihydroimidazo[1,2-a]pyrimido[5,4-e]pyrimidin-5(6H)-one] |  | 393 | 97 | 481 |  | 
CN1CCN(c2ccc(Nc3ncc4c(n3)N3CCN=C3N(c3c(F)cccc3Cl)C4=O)cn2)CC1 [Example 57, 6-(2-Chloro-6-fluorophenyl)-2-((6-(4-methylpiperazin-1-yl)pyridin-3-yl)amino)-8,9-dihydroimidazo[1,2-a]pyrimido[5,4-e]pyrimidin-5(6H)-one] | > 10000 | 13600 | 89 |  | 36 | 80

Now those with a lower IC50 [2], led by results:

IC50 ([1]; NCI-H1299 cells) [nM] | IC50 [2] [nM] | Inh. (%) of Wee1 kinase enzyme activity ([3]; C 1 μm compound) [%] | IC50 ([1]; NCI-H1299, NCI-H1299 cells) [nM] | Inh. (%) of Wee1 kinase enzyme activity ([3]; C 0.01 μm compound) [%] | Inh. (%) of Wee1 kinase enzyme activity ([3]; C 0.1 μm compound) [%] | SMILES
 | 136 | 94 | 152 | 30 | 83 | Cc1cc(Nc2ncc3c(n2)N2CCN=C2N(c2c(C)cccc2Cl)C3=O)cc(C)c1N1CCN(C)CC1 [Example 174, 6-(2-Chloro-6-methylphenyl)-2-((3,5-dimethyl-4-(4-methylpiperazin-1-yl)phenyl)amino)-8,9-dihydroimidazo[1,2-a]pyrimido[5,4-e]pyrimidin-5(6H)-one]
172 | 88.7 | 98 |  | 46 | 93 | CN1Cc2cc(Nc3ncc4c(n3)N3CCN=C3N(c3c(F)cccc3Cl)C4=O)ccc2C2(CC2)C1 [Example 10, 6-(2-Chloro-6-fluorophenyl)-2-((2′-methyl-2′,3′-dihydro-1′H-spiro[cyclopropane-1,4′-isoquinolin]-7′-yl)amino)-8,9-dihydroimidazo[1,2-a]pyrimido[5,4-e]pyrimidin-5(6H)-one]
330 | 30.5 | 98 |  | 45 | 89 | C[C@@H]1CN(c2ccc(Nc3ncc4c(n3)N3CCN=C3N(c3c(F)cccc3Cl)C4=O)cc2Cl)C[C@H](C)N1C [Example 47, 2-((3-Chloro-4-((3S,5R)-3,4,5-trimethylpiperazin-1-yl)phenyl)amino)-6-(2-chloro-6-fluorophenyl)-8,9-dihydroimidazo[1,2-a]pyrimido[5,4-e]pyrimidin-5(6H)-one]
 | 114 | 96 | 122 | 20 | 78 | Cc1cc(Nc2ncc3c(n2)N2CCN=C2N(c2c(Cl)cccc2Cl)C3=O)cc(Cl)c1N1C[C@@H](C)N(C)[C@@H](C)C1 [Example 137, 6-(2,6-Dichlorophenyl)-2-((3-chloro-5-methyl-4-((3S,5R)-3,4,5-trimethylpiperazin-1-yl)phenyl)amino)-8,9-dihydroimidazo[1,2-a]pyrimido[5,4-e]pyrimidin-5(6H)-one]
 | 55.5 | 98 | 99.3 | 28 | 86 | Cc1cc(Nc2ncc3c(n2)N2CCN=C2N(c2c(Cl)cccc2Br)C3=O)cc(Cl)c1N1CCN(C)CC1 [Example 166, 6-(2-Bromo-6-chlorophenyl)-2-((3-chloro-5-methyl-4-(4-methylpiperazin-1-yl)phenyl)amino)-8,9-dihydroimidazo[1,2-a]pyrimido[5,4-e]pyrimidin-5(6H)-one]
 | 52.4 | 88 | 217 | 11 | 86 | Cc1cc(Nc2ncc3c(n2)N2CCN=C2N(c2c(Cl)cccc2Cl)C3=O)ccc1N1C[C@@H](C)N(C)[C@@H](C)C1 [Example 77, 6-(2,6-Dichlorophenyl)-2-((3-methyl-4-((3S,5R)-3,4,5-trimethylpiperazin-1-yl)phenyl)amino)-8,9-dihydroimidazo[1,2-a]pyrimido[5,4-e]pyrimidin-5(6H)-one]
 | 51.8 | 91 | 334 | 20 | 58 | CN1CCN(c2c(Cl)cc(Nc3ncc4c(n3)N3CCN=C3N(c3c(F)cccc3Cl)C4=O)cc2Cl)CC1 [Example 122, 6-(2-Chloro-6-fluorophenyl)-2-((3,5-dichloro-4-(4-methylpiperazin-1-yl)phenyl)amino)-8,9-dihydroimidazo[1,2-a]pyrimido[5,4-e]pyrimidin-5(6H)-one]
250 | 83.3 | 95 |  | 9 | 85 | COc1cc(Nc2ncc3c(n2)N2CCN=C2N(c2c(Cl)cccc2Cl)C3=O)ccc1N1CCN(C)CC1 [Example 146, 6-(2,6-Dichlorophenyl)-2-((3-methoxy-4-(4-methylpiperazin-1-yl)phenyl)amino)-8,9-dihydroimidazo[1,2-a]pyrimido[5,4-e]pyrimidin-5(6H)-one]
 | 70.3 | 93 | 78.2 | 26 | 73 | COc1cc(Nc2ncc3c(n2)N2CCN=C2N(c2c(F)cccc2Cl)C3=O)cc(C)c1N1CCN(C)CC1 [Example 129, 6-(2-Chloro-6-fluorophenyl)-2-((3-methoxy-5-methyl-4-(4-methylpiperazin-1-yl)phenyl)amino)-8,9-dihydroimidazo[1,2-a]pyrimido[5,4-e]pyrimidin-5(6H)-one]
